According to paper PMC9504695, “Insight into the Formation of Cocrystal and Salt of Tenoxicam from the Isomer and Conformation” (Pharmaceutics, 2022):
Like-named read-outs stand apart in the source and are kept apart here.

Experiments:
[1] = Dissolution measurements (basket method, 37 °C, HPLC); assay type: physicochemical; conditions: pH 1.2 and 6.8, 37 °C
Procedure: Dissolution measurements were investigated by the basket method by using an RC12AD dissolution instrument (Tianjin Tianda Tianfa Technology Co., Ltd., Tianjin, China). According to a previous study, it is necessary that all of the particle sizes of TNX, cocrystals, and salt are at the same level when the same operation is performed on these samples. To do so, the powder samples of TNX, two cocrystals, and one salt were milled and sieved through 100-mesh sieves to minimize the size influence on the results. The temperature and rotation speed were set to 37 °C and 160 r·min^−1. The dissolution mediums were water (pH 7.0), phosphate buffer (pH 6.8), acetate buffer (pH 4.5), and hydrochloric buffer (pH 1.2). Accurately weighed samples (containing 60 mg of TNX) were each added to 900 mL of dissolution mediums. The sampling points were at 5, 10, 15, 20, 30, 45, 60, 90, 120, 180, 240, 360, 480, 600, and 720 min. The concentrations of TNX were quantified on an Agilent 1200 Series HPLC system (Agilent Technologies, Santa Clara, USA) with a Sil-Green C18 HPLC column (4.6 mm × 250 mm, 5μm) and a UV detector at a wavelength of 257 nm. The mobile phase was methanol–0.04% formic acid aqueous solution (61:39). The flow rate and column temperature were set to 1 mL·min^−1 and 25 °C.

[2] = cited from earlier work
[3] = pKa of TNX and cocrystal coformers (values from SciFinder); conditions: between CCF and TNX (pKa of TNX 4.50)
[4] = low solubility and high permeability; cited from earlier work
[5] = clinical dosage forms; cited from earlier work

ΔpKa Value [3] | SMILES | pKa Value ([2]; pKa of the CCF, ref SciFinder) | also measured
– | CN1C(C(=O)Nc2ccccn2)=C(O)c2sccc2S1(=O)=O.Nc1ccc(C(=O)O)c(O)c1 [TNX-PAS] | – | solubility in dissolution measurements, comparison [1]: slightly higher than that of TNX
0.76 | O=C(O)CO [Glycolic acid (GLA), Glycolic acid] | 3.74 | –
2.12 | O=C(O)CCC(=O)C(=O)O [α-Ketoglutaric acid (KLA), α-Ketoglutaric acid] | – | –
3.20 | O=C(O)c1c(O)cccc1O [2,6-Dihydroxybenzoic acid (DHB), 2,6-Dihydroxybenzoic acid] | 1.30 | –
0.07 | O=C(O)c1ccc(O)cc1 [4-Hydroxybenzoic acid (HBA), 4-Hydroxybenzoic acid] | – | –
– | O=C1NS(=O)(=O)c2ccccc21 [Saccharin (SCR), Saccharin] | 1.60 | –
2.11 | O=C(O)/C=C\C(=O)O [Maleic acid (MLA), Maleic acid] | 2.39 | –
4.78 | Oc1cccc(O)c1O [Pyrogallol (PRG), Pyrogallol] | 9.28 | –
– | CN1C(C(=O)Nc2ccccn2)=C(O)c2sccc2S1(=O)=O [TNX, Tenoxicam] | – | pKa ([2]; TNX, source not given): 4.50; BCS class [4]: class II; half-life period [5]: 70~90 h
– | O=C(O)C(=O)O [Oxalic acid (OLA), Oxalic acid] | 1.38 | –
4.95 | Oc1cccc(O)c1 [Resorcinol (RSC), Resorcinol] | 9.45 | –
0.26 | O=C(O)CCC(=O)O [Succinic acid (SNA), Succinic acid] | – | –

SMILES | ΔpKa Value [3] | pKa Value ([2]; pKa of the CCF, ref SciFinder) | also measured
Oc1ccccc1O [Pyrocatechol (PRC), Pyrocatechol] | 5.00 | 9.50 | –
Nc1ccc(C(=O)O)c(O)c1 [p-Aminosalicylic acid (PAS), p-Aminosalicylic acid] | 0.92 | – | pKa Value [2]: 3.58
O=C(O)c1cc([N+](=O)[O-])cc([N+](=O)[O-])c1 [3,5-Dinitrobenzoic acid (DNB), 3,5-Dinitrobenzoic acid] | 1.73 | 2.77 | –
